This is an account of results in patent publication US9629834B2, “Medicinal composition for inhibiting formation and/or enlargement of cerebral aneurysm or shrinking same” (KYOTO UNIVERSITY, priority 2013, dated 2017).

One assay has as its system cerebral aneurysm model. Briefly: Inhibitory effect on enlargement of cerebral aneurysm in cerebral aneurysm model. The assay is classed as in vivo, SD rat. The note with it: 0.1 mg/5 mL suspension, forced oral, once a day from Day 7; measured Day 7, Day 28, Day 49; FIG. 8 and FIG. 9. As to the method: A rat model of cerebral aneurysm was prepared according to the method disclosed on the literature by Hashimoto et al. (Surgical Neurology 1978, Vol. 10, p. 3-8). Namely, 50 mg/kg of pentobarbital was administrated intraperitoneally to a 7-week-old male SD rat, and the left common carotid artery and the left renal artery were ligated by using 10-0 nylon thread under anesthesia (this is referred to as the surgery for inducing cerebral aneurysm). From the day after surgery (Day 1), the rat was reared with being fed a high-salt diet. During a rearing period, the rat was given free access to water. The cerebral aneurysm model was reared with being fed a high-salt diet for 7 days from the day of the surgery so that the model formed cerebral aneurysm. 7 Days after surgery (Week 1, Day 7), the diet for the cerebral aneurysm model was replaced with a normal diet, and forced oral administration of the suspension of Compound 1 at a concentration of 0.1 mg/5 mL to the cerebral aneurysm model was conducted once a day. […] 7 Days after surgery (Week 1, Day 7), 28 days after surgery (Week 4, Day 28), and 49 days after surgery (Week 7, Day 49), the right olfactory artery/anterior cerebral artery bifurcation containing cerebral aneurysm was extirpated and the size of cerebral aneurysm (the maximum diameter and the mean diameter) was measured by similar procedures to Example 1.

Assay [1] concerns Human carotid artery endothelial cells HCtAEC. Briefly: Permeability of endothelial cells (Transwell, FITC-dextran). The note with it: 0.1 nM, 1 nM, 10 nM, or 100 nM; 60 minutes pre-culture; fluorescence after 5, 60 and 210 minutes; FIG. 14. Type of assay: cell-based. The procedure:
Human carotid artery endothelial cells […] (Cell Applications) were seeded in the upper compartment of Transwell (diameter: 6.5 mm, pore size: 0.4 μm, collagen-Coated: Corning) so that the cell density was 1×10^5 cells/well, and the cells were cultured overnight in MesoEndo Growth Medium (Cell Applications) under a 5% CO2 atmosphere at 37° C. The medium was replaced with Endothelial Cell Serum-Free Defined Medium (Cell Applications), and the cells were further cultured overnight under the CO2 atmosphere at 37° C. Then, Compound 1 was added to the upper compartment and the lower compartment of Transwell so that the final concentration was 0 nM, 0.1 nM, 1 nM, 10 nM, or 100 nM, and the cells were cultured continuously. The well to which Compound 1 was not added was defined as a control. After culturing for 60 minutes, 250 μg/mL of fluorescein isothiocyanate (FITC)-dextran (2,000 kDa: Sigma-Aldrich) was added to the upper compartment of Transwell, and the amount of FITC-dextran which permeated into the lower compartment was determined by measuring the fluorescence intensity of the medium in the lower compartment after 5 minutes, 60 minutes, and 210 minutes.

For a further assay, the system named is macrophages. Briefly: Macrophages infiltrating cerebral aneurysm walls in the enlargement study. The note with it: 0.1 mg/5 mL suspension, forced oral, once a day from Day 7; 49 days after surgery (Week 7); FIG. 10. Type of assay: in vivo, SD rat. As to the method: Immunostaining of macrophages (F4/80-positive cells) was conducted on the prepared section as described below. As a primary antibody solution, a solution in which a rat anti-F4/80 antibody [BM8](AB16911: Abcam) was diluted with a phosphate buffer by 100 times was prepared. As a secondary antibody solution, a solution in which an alexa 488-conjugated donkey anti-rat IgG antibody (Invitrogen) was diluted with a phosphate buffer by 100 times was prepared. The section was allowed to react in the primary antibody solution at 4° C. for 16 hours, washed with a phosphate buffer, and thereafter, was allowed to react in the secondary antibody solution at room temperature for 1 hour. […] In addition, macrophages (F4/80-positive cells) stained green at the peripheries of nuclei (blue) were observed therein (in monochrome FIG. 3A, portions with a higher degree of whiteness). Under the observation with a confocal microscope, the number of macrophages was counted in an area of 100 μm square centered around the cerebrovascular bifurcation where cerebral aneurysm developed. The measurement was conducted on five rats and the mean value was calculated. […] In addition, 49 days after surgery (Week 7), the number of macrophages infiltrating cerebral aneurysm walls was counted according to the procedure of Reference Example 4 under the observation with a confocal microscope.

The subject of assay [2] is lymphocytes in peripheral blood. In words: Lymphopenic action in cerebral aneurysm model. Type of assay: in vivo, SD rat. The note with it: 0.03 mg/5 mL or 0.1 mg/5 mL suspension, 5 mL/kg, forced oral, once a day, Day 1 to Day 27; blood collected Day 28; FIG. 2. The procedure:
A rat model of cerebral aneurysm was prepared according to the method disclosed on the literature by Hashimoto et al. (Surgical Neurology 1978, Vol. 10, p. 3-8). Namely, 50 mg/kg of pentobarbital was administrated intraperitoneally to a 7-week-old male SD rat, and the left common carotid artery and the left renal artery were ligated by using 10-0 nylon thread under anesthesia (this is referred to as the surgery for inducing cerebral aneurysm). From the day after surgery (Day 1), the rat was reared with being fed a high-salt diet. During a rearing period, the rat was given free access to water. Forced oral administration of 0.03 mg/5 mL or 0.1 mg/5 mL of the suspension of Compound 1 to the cerebral aneurysm model was conducted once a day at a dose of 5 mL/kg from 1 day after surgery (Day 1) to 27 days after surgery (Day 27). It should be noted that forced oral administration of the 0.5% MC solution (0 mg/5 mL of the suspension of Compound 1) to the cerebral aneurysm model was conducted once a day at a dose of 5 mL/kg. The group of these rats was defined as a vehicle group. […] The number of lymphocytes in the collected blood was counted by using a blood test system (Advia 120, Siemens Healthcare Diagnostics) according to the manual of the system.

For the molecule `C[C@H](Oc1ccc(-c2nc(-c3ccc4[nH]cnc4c3)no2)cc1C(F)(F)F)C(F)(F)F.Cl` [Compound 1, 5-{5-[3-(trifluoromethyl)-4-{[(2S)-1,1,1-trifluoropropan-2-yl]oxy}phenyl]-1,2,4-oxadiazol-3-yl}-1H-benzimidazole hydrochloride], in the assay with cerebral aneurysm model, the “enlargement of cerebral aneurysm (maximum diameter and mean diameter)” value is “inhibited the enlargement of cerebral aneurysm”. For the same molecule, in assay [1], the “amount of FITC-dextran which permeated into the lower compartment (permeability of endothelial cells)” value was “decreased the amount of FITC-dextran which permeated into the lower compartment in a concentration-dependent manner”. Also, the “number of macrophages infiltrating cerebral aneurysm walls” value in the assay with macrophages was “decreased the number of macrophages at the site where cerebral aneurysm was induced”. Moreover, the “number of lymphocytes in peripheral blood” value in assay [2] is reported as “decreased the number of lymphocytes in peripheral blood in a concentration-dependent manner”.
